From ChEMBL document CHEMBL1201862, “PubChem BioAssay data set” (2004)
Blank lines part the entries; values can stand above or below the compound they belong to. The source made the active and inactive calls. Cut-off read from the data, not from the text of the source, for most assays here: actives have a measured EC50 and inactives only a lower limit.

Assays:
[1] = viability of uninfected HEp-2 cells – cell-based, HTS, cytotoxicity control for RSV inhibitor project, dose response (AID 2410); format: functional; conditions: human respiratory syncytial virus
[2] = target: T1, RNA-binding protein pos-1 (Caenorhabditis elegans, UniProt G5EF15); assay: disruptors of C. elegans POS-1 RNA interaction – biochemical, fluorescence polarization, dose response (AID 1964);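 note: purified POS-1 fused to maltose binding protein made in E. coli; potency of compounds blocking POS-1 binding to fluorescent RNA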
T1 sequence (G5EF15 whole entry): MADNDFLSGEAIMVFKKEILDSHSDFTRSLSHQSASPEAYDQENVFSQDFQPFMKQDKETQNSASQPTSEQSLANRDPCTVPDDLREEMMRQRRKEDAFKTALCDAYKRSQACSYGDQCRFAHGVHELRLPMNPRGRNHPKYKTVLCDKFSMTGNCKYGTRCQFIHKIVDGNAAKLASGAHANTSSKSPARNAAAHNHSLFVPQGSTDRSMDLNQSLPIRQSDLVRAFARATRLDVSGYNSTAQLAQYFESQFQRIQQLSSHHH

[3] = target: T2, Zinc finger protein mex-5 (Caenorhabditis elegans, UniProt Q9XUB2); assay: potency of MEX-5 RNA-binding blockers – biochemical, C. elegans, fluorescence polarization, dose response (AID 1960)
T2 sequence (Q9XUB2 whole entry): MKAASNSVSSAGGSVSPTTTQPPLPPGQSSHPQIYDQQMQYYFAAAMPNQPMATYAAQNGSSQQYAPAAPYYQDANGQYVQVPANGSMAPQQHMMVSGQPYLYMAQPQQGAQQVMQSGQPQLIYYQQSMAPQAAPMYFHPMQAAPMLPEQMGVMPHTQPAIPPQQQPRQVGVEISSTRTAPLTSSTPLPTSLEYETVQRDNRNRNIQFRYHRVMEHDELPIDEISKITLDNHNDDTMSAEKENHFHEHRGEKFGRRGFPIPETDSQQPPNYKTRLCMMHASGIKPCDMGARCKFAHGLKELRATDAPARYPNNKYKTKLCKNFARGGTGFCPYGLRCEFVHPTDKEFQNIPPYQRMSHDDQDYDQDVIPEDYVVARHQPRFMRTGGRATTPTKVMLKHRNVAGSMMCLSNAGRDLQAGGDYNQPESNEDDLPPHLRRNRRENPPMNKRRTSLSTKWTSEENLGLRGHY

[4] = target: T3, Heat shock factor protein 1 (Mus musculus, UniProt P38532); assay: decrease of HSF1-responsive luciferase luminescence – cell-based, NIH3T3, dose retest, confirmation (AID 2382); format: functional;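 note: NIH3T3 fibroblasts with HSF1-driven luciferase reporter stressed by proteasome inhibitor MG132; luminescence from HSF1-driven luciferase expression after 8 hours of MG132 stress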
T3 sequence (P38532 whole entry): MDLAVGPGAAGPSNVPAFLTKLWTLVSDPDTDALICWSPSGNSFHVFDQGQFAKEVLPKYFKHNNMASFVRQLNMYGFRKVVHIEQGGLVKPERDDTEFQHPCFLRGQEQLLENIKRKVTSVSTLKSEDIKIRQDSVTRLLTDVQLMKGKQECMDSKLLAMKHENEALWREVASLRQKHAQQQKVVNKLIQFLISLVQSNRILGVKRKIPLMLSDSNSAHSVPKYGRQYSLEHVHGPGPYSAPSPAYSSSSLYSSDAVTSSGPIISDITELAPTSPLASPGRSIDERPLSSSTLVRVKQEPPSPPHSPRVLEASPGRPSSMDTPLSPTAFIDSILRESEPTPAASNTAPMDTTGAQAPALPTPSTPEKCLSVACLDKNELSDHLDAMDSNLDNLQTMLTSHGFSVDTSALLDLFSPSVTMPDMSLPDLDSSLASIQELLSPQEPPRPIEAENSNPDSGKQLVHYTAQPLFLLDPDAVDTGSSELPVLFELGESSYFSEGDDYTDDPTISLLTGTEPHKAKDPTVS

[5] = target: T4, Corticotropin-releasing factor receptor 2/Corticotropin-releasing factor-binding protein (Homo sapiens, UniProt P24387+Q13324); assay: Dose Response confirmation of uHTS hits for small molecule antagonists of the CRF-binding protein and CRF-R2 receptor complex.; format: functional; conditions: read-out: IC50_Mean
T4 sequence (Q13324 whole entry): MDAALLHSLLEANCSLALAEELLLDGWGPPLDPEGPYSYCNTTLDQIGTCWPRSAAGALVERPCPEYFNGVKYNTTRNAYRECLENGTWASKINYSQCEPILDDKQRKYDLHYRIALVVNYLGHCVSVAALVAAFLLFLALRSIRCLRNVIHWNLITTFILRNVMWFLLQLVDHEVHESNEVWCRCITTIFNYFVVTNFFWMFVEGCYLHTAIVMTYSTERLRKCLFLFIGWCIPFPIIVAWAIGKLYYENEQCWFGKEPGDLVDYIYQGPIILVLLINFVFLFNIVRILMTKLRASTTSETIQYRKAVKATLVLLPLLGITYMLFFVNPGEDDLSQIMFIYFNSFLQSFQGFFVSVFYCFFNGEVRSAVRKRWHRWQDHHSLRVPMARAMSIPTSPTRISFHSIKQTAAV
T4 sequence (P24387 whole entry): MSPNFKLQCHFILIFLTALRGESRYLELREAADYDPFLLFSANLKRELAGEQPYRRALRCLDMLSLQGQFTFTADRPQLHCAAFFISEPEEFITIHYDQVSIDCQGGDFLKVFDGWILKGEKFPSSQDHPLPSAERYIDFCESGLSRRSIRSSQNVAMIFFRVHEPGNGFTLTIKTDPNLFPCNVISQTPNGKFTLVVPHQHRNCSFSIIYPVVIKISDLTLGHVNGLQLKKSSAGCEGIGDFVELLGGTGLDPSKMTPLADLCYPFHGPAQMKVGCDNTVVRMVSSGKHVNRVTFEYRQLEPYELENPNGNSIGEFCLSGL

[6] = target: T4, Corticotropin-releasing factor receptor 2/Corticotropin-releasing factor-binding protein; assay: activators of CRF receptor 2 with binding protein – uHTS hits, confirmation (AID 602473); format: functional; conditions: read-out: EC50_Mean
[7] = reduction of Shn3 3'UTR-driven luciferase in osteoblasts – cell-based, Clone20 osteoblasts, firefly luciferase, cherry-picked, dose response (AID 624132); format: functional;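 note: firefly luciferase luminescence from reporter carrying the Shn3 3'UTR in osteoblasts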

Structure (SMILES): O=C1N=C(Nc2cccc(O)c2)S/C1=C\c1cccc([N+](=O)[O-])c1
CC50 [1]: > 50 µM (active)

Structure (SMILES): Cc1n[nH]c(-c2ccc(OCc3cnn(-c4ccccc4)c3)c(C)c2O)c1Oc1ccccc1
CC50 [1]: 14.6 µM (active)

Structure (SMILES): Cc1c(OCC(=O)NCC(O)c2ccccc2)ccc2c3c(c(=O)oc12)CCCC3 (stereo unspecified)
CC50 [1]: 48.5 µM (active)

Structure (SMILES): CCc1ccc(C2=NNC(=Nc3c(C)n(C)n(-c4ccccc4)c3=O)SC2)cc1
CC50 [1]: 20.1 µM (active)

Structure (SMILES): Cc1ccc(N2CC(C(=O)Nc3nc4ccc(S(C)(=O)=O)cc4s3)CC2=O)cc1 (stereo unspecified)
EC50 [4]: > 195 µM (not active)

Structure (SMILES): CCOP(=O)(OCC)C(Nc1cccc([N+](=O)[O-])c1)c1ccccc1 (stereo unspecified)
EC50 [2]: > 300 µM (not active)
EC50 [3]: > 300 µM (not active)
IC50 [5]: > 47.1 µM (inactive)
EC50 [6]: > 53 µM (inactive)

Structure (SMILES): N#C/C(=C\Nc1ccc2c[nH]nc2c1)c1nc(-c2ccccc2)cs1
EC50 [4]: > 195 µM (not active)

Structure (SMILES): COC(=O)CNc1cccc(C(F)(F)F)c1
EC50 [2]: > 300 µM (not active)
EC50 [3]: > 300 µM (not active)

Structure (SMILES): CC(=O)Nc1ccc(NC(=O)COc2ccc([N+](=O)[O-])cc2)cc1
IC50 [5]: > 47.1 µM (inactive)
EC50 [6]: > 53 µM (inactive)

Structure (SMILES): CCN(CC)C(=O)C1CCCN(c2ccc([N+](=O)[O-])cc2[N+](=O)[O-])C1 (stereo unspecified)
AC50 [7]: 52.4 µM (active)

Structure (SMILES): N#Cc1ccc(CN2CCN(CC(=O)NCCc3ccc(Cl)cc3Cl)CC2)cc1
CC50 [1]: 22.9 µM (active)

Structure (SMILES): CC(Oc1ccc(Cl)cc1Cl)C(=O)Nc1cccc(O)c1 (stereo unspecified)
CC50 [1]: 27.2 µM (active)

Structure (SMILES): COc1ccccc1-c1nnc(SC2CCc3ccccc3NC2=O)s1 (stereo unspecified)
EC50 [4]: > 195 µM (not active)

Structure (SMILES): COc1ccc(N(C)C(=O)CN(C)S(=O)(=O)c2ccc3c(c2)c(=O)n(C)c(=O)n3C)c(OC)c1
EC50 [4]: 120 µM (active)

Structure (SMILES): CCN(CC(=O)N1CCCC1)S(=O)(=O)c1ccc(F)cc1
EC50 [4]: > 195 µM (not active)

Structure (SMILES): CSc1cccc(NC(=O)N2CCc3ccc(NC(=O)c4ccccn4)cc3C2)c1
CC50 [1]: 14.4 µM (active)

Structure (SMILES): Cc1[nH]c2ccccc2c1C(C[N+](=O)[O-])c1cccs1 (stereo unspecified)
EC50 [4]: > 195 µM (not active)

Structure (SMILES): CC(=O)Nc1ccc(S(=O)(=O)NCc2csc(C)n2)cc1
EC50 [4]: > 195 µM (not active)

Structure (SMILES): Cc1ccccc1OCCNC(=O)c1ccc2ccccc2n1
CC50 [1]: 24.5 µM (active)

Structure (SMILES): CC(=O)c1c(O)cc(O)cc1CC(=O)O
EC50 [2]: > 300 µM (inconclusive)
EC50 [3]: 190 µM (inconclusive)

Structure (SMILES): CC1(C)C(=O)NCCN1C(=O)CSc1nccc(-c2ccc(Br)cc2)n1
CC50 [1]: 34.1 µM (active)

Structure (SMILES): COc1ccc(/C(C)=N/Nc2nc3ccccc3nc2C)cc1OC
EC50 [2]: 5.07 µM (inconclusive)
EC50 [3]: 66.5 µM (inconclusive)

Structure (SMILES): CSc1ccc(/C=N/n2nnnc2N)cc1
CC50 [1]: 48.5 µM (active)

Now from value to compound, other results behind:

EC50 [2]: 23.3 µM (active)
EC50 [3]: 57.7 µM (inconclusive)
Structure (SMILES): COC(=O)CCCC1=CC2=CC(=O)C(C)(OC(=O)C3CCCC3)C(=O)C2=CO1 (stereo unspecified)

EC50 [2]: > 300 µM (not active)
EC50 [3]: > 300 µM (not active)
Structure (SMILES): CC1=C(C#N)C(=O)N(C)C(=O)/C1=C\NNc1ccc(F)cc1

EC50 [4]: > 195 µM (not active)
Structure (SMILES): COc1ccc(CN(CCCN2CCOCC2)C(=O)Nc2cccc(Cl)c2)cc1OC

EC50 [4]: > 195 µM (not active)
Structure (SMILES): Cc1cccc(C)c1OCC(=O)NCc1ccccc1

EC50 [4]: > 195 µM (not active)
Structure (SMILES): CC1=Nc2ccc(C)c3nc(C)cc(c23)N1c1ccc(C)cc1
CC50 [1]: > 50 µM (active)

EC50 [4]: > 195 µM (not active)
Structure (SMILES): CC(N1CCOC1=O)S(=O)(=O)c1ccccc1 (stereo unspecified)

EC50 [4]: > 195 µM (not active)
Structure (SMILES): CCN(CC)S(=O)(=O)c1cccc(NC(=O)CCNC(=O)NC23CC4CC(CC(C4)C2)C3)c1

IC50 [5]: > 47.1 µM (inactive)
EC50 [6]: > 53 µM (inactive)
Structure (SMILES): COc1ccc(S(=O)(=O)N(C)CC(=O)NC2CCCCC2)cc1OC

EC50 [4]: > 195 µM (not active)
Structure (SMILES): COc1ccc(CCNC(=O)CN(c2ccc(OC)c(OC)c2)S(C)(=O)=O)cc1OC

EC50 [4]: > 195 µM (not active)
Structure (SMILES): CCOC(=O)Nc1ccccc1C(=O)Nc1cc(C)cc(C)c1

IC50 [5]: > 47.1 µM (inactive)
EC50 [6]: > 53 µM (inactive)
Structure (SMILES): Cc1c(-c2nc[nH]n2)sc(C#N)c1-c1ccccc1
CC50 [1]: 24.4 µM (active)

IC50 [5]: > 47.1 µM (inactive)
EC50 [6]: > 53 µM (inactive)
Structure (SMILES): COc1ccc(S(=O)(=O)N2CCN(C(=O)CCCN3C(=O)NC4(CCCC4)C3=O)CC2)cc1

EC50 [2]: > 300 µM (not active)
EC50 [3]: > 300 µM (not active)
IC50 [5]: > 47.1 µM (inactive)
EC50 [6]: 13.7 µM (active)
Structure (SMILES): N#Cc1c(N)n(-c2cccc(C(=O)O)c2)c2nc3ccccc3nc12

IC50 [5]: > 47.1 µM (inactive)
EC50 [6]: > 53 µM (inactive)
Structure (SMILES): COc1ccc(NC(=O)c2nc3nccc(C)n3n2)cc1S(=O)(=O)N1CCOCC1

EC50 [4]: > 195 µM (not active)
Structure (SMILES): CCCCN1C(=O)C(CC(=O)NCC)S/C1=N/c1ccccc1 (stereo unspecified)
